Results from patent US10131639B2, “Formulations of 2-(tert-butylamino)-4-((1R,3R,4R)-3-hydroxy-4methylcyclohexylamino)-pyrimidine-5-carboxamide” (Signal Pharmaceuticals, LLC, priority 2014, dated 2018).

Experiments:
[1] = Solubility in water and SGF (24 hours, ambient temperature, HPLC/UV); assay type: physicochemical; conditions: for pH of the solubility sample in SGF / pH of the solubility sample in water: measured after 24 hours shaking; for Solubility in SGF (equiv. to free base): simulated gastric fluid without pepsin; for Solubility in SGF (equiv. to free base) / Solubility in water (equiv. to free base): ambient temperature, 24 hours
Protocol: Solubility in Water and SGF: A portion of the sample was weighed into a 2 mL clear HPLC vial. […] The sample was removed from the shaker and pH measurement was performed using a calibrated pH meter. Then a portion of the sample was filtered using […] Nylon-membraned centrifuge tube filter at 14000 RPM for 5 min. The filtrate was analyzed using HPLC/UV with appropriate dilution. The filtered solid residues were analyzed using XRPD.
For solubility in SGF, the samples were prepared and assayed in the same procedures as mentioned above.

[2] = Hygroscopicity by dynamic vapor sorption (DVS); assay type: physicochemical; conditions: for Hygroscopicity (80% RH, 25° C., cycle 1 sorption): DVS water uptake, L-tartrate: hydrate, difference between 20% RH and 80% RH
Excerpt: DVS: A portion of the sample was loaded into a quartz sample holder and tested using DVS-Advantage system in two continuous adsorption/desorption cycles. The settings are described as follows:
Adsorption/desorption cycle 1: 50 to 95 to 0% RH;
Adsorption/desorption cycle 2: 0 to 95 to 0% RH;

[3] = Solid state physical stability under stress conditions (XRPD); assay type: physicochemical; conditions: XRPD vs initial material
Protocol: A portion of the sample was loaded to a 4 mL clear glass vial. Four samples were prepared for each salt. The vials (open) were stored under 4 different stress conditions, respectively.

[4] = Solid state chemical stability under stress conditions (HPLC with UV detection); conditions: for Chemical stability (open vial, 2 weeks) / Chemical stability (open vial, 2 weeks): degradation: HPLC/UV; for % Remaining at 80° C. / % Remaining at 80° C./75% RH: solid state, open vial, 2 weeks, HPLC with UV detection
Protocol: Six vials were prepared for each salt. Two samples were stored in the refrigerator. The other four samples in open vials were stored under 4 stress conditions, respectively. […] One set of samples stored in the refrigerator were used to prepare the stock and standard solutions.

[5] = Hygroscopicity by dynamic vapor sorption (DVS); assay type: physicochemical; conditions: 25° C., after pre-heating at 50° C. for 3 hours
[6] = 80° C./75% RH, listed as H2SO4 salt

Row | SMILES | pH of the solubility sample in SGF [1] | pH of the solubility sample in water [1] | Solubility in SGF (equiv. to free base) [1] [µg/mL] | Solubility in water (equiv. to free base) [1] [µg/mL] | hygroscopicity (sorption/desorption, in words) ([2]; DVS, 25° C.) | Hygroscopicity (80% RH, 25° C., cycle 1 sorption) [2] [%] | Physical stability (open vial, 2 weeks) ([3]; 80° C./75% RH) | Physical stability (open vial, 2 weeks) ([3]; 80° C.) | Chemical stability (open vial, 2 weeks) ([4]; 80° C./75% RH) | Chemical stability (open vial, 2 weeks) ([4]; 80° C.) | % Remaining at 80° C. ([4]; 80° C.) [%] | % Remaining at 80° C./75% RH ([4]; 80° C./75% RH) [%] | further results
1 | CC(O)C(=O)O.CC1CCC(Nc2nc(NC(C)(C)C)ncc2C(N)=O)CC1O [L-lactate] | – | – | – | – | moderately hygroscopic | 2.65 | form change | form change | no change | no change | 100.4 | 100.5 | Physical stability (open vial, 2 weeks) ([3]; 80° C./75% RH, listed as L-lactate salt form 2): not physically stable; Physical stability (open vial, 2 weeks) ([3]; 80° C., listed as L-lactate salt form 2): not physically stable
2 | CC1CCC(Nc2nc(NC(C)(C)C)ncc2C(N)=O)CC1O.Cl (stereo not shown) [HCl] | (pH 1.19) | (pH 3.87) | 6058 | 10761 | hygroscopic | 5.21 | form change | no change | no change | no change | 101.2 | 100.4 | water uptake at 40% RH, Cycle 2 sorption isotherm ([2]; DVS, 25° C.): 4.89%; Physical stability (open vial, 2 weeks) ([3]; 80° C./75% RH, listed as HCl salt): not stable; Physical stability (open vial, 2 weeks) ([3]; 80° C., listed as HCl salt): physically stable
3 | C[C@@H]1CC[C@@H](Nc2nc(NC(C)(C)C)ncc2C(N)=O)C[C@H]1O.O=S(=O)(O)O [Compound H2SO4] | (pH 1.03) | (pH 1.69) | 3187 | 2647 | hygroscopic | 6.13 | form change | no change | no change | no change | 100.0 | 100.1 | Physical stability (open vial, 2 weeks) [3, 6]: not stable; Physical stability (open vial, 2 weeks) ([3]; 80° C., listed as H2SO4 salt): physically stable; Chemical stability (open vial, 2 weeks) [4, 6]: stable; Chemical stability (open vial, 2 weeks) ([4]; 80° C., listed as H2SO4 salt): stable
4 | O=C(O)[C@H](O)[C@@H](O)C(=O)O [L-tartrate] | – | – | – | – | – | 0.81 | no change | no change | no change | no change | 98.7 | 98.3 | hygroscopicity (sorption/desorption, in words) ([2]; DVS, 25° C., listed as L-tartrate salt): slightly hygroscopic; hygroscopicity (sorption/desorption, in words) ([2]; DVS, 25° C., listed as L-tartrate salt (hydrate)): not hygroscopic; Physical stability (open vial, 2 weeks) ([3]; 80° C./75% RH, listed as L-tartrate salt): physically stable; Physical stability (open vial, 2 weeks) ([3]; 80° C., listed as L-tartrate salt): physically stable; Cycle 1 sorption at 20% RH [5]: 4.32%

Second part, led by results:

Row | pH of the solubility sample in SGF [1] | pH of the solubility sample in water [1] | Solubility in SGF (equiv. to free base) [1] [µg/mL] | Solubility in water (equiv. to free base) [1] [µg/mL] | hygroscopicity (sorption/desorption, in words) ([2]; DVS, 25° C.) | SMILES | Hygroscopicity (80% RH, 25° C., cycle 1 sorption) [2] [%] | Physical stability (open vial, 2 weeks) ([3]; 80° C./75% RH) | Physical stability (open vial, 2 weeks) ([3]; 80° C.) | Chemical stability (open vial, 2 weeks) ([4]; 80° C./75% RH) | Chemical stability (open vial, 2 weeks) ([4]; 80° C.) | % Remaining at 80° C. ([4]; 80° C.) [%] | % Remaining at 80° C./75% RH ([4]; 80° C./75% RH) [%] | further results
5 | (pH 1.54) | (pH 4.07) | 8922 | 4496 | hygroscopic | C[C@@H]1CC[C@@H](Nc2nc(NC(C)(C)C)ncc2C(N)=O)C[C@H]1O.O=C(O)C[C@H](O)C(=O)O [L-malate] | 5.60 | form change | form change | not chemically stable | not chemically stable | 87.7 | 92.9 | Physical stability (open vial, 2 weeks) ([3]; 80° C./75% RH, listed as L-malate salt): not physically stable; Physical stability (open vial, 2 weeks) ([3]; 80° C., listed as L-malate salt): not physically stable; Chemical stability (open vial, 2 weeks): degradation ([4]; 80° C./75% RH): ~7% degradation; Chemical stability (open vial, 2 weeks): degradation ([4]; 80° C.): ~12% degradation
6 | – | – | – | – | not hygroscopic | C[C@@H]1CC[C@@H](Nc2nc(NC(C)(C)C)ncc2C(N)=O)C[C@H]1O.O=P(O)(O)O [Compound H3PO4] | 0.48 | no change | no change | no change | no change | 101.1 | 99.9 | Physical stability (open vial, 2 weeks) ([3]; 80° C./75% RH, listed as H3PO4 salt): physically stable; Physical stability (open vial, 2 weeks) ([3]; 80° C., listed as H3PO4 salt): physically stable
